Laboratory results published in patent US10239829B2, “Antagonists of the glucagon receptor” (Metabasis Therapeutics, Inc., priority 2007, dated 2019).

Key:
db/db mice = experiment: Glucose lowering in db/db mice; format: in vivo, mouse; details: freely-feeding; for inhibition in vivo at 30 mg/kg / inhibition in vivo at 100 mg/kg: Mus musculus, oral gavage, 100% = normalization to lean db/+ mice; for Glucose lowering: vs vehicle-treated db/db mice
Experimental: Purpose: To assess the effects of compounds of the invention on blood glucose levels in the db/db mouse, an animal model of type 2 diabetes.
Methods: Compounds were dissolved in polyethylene glycol-400 and administered by oral gavage to db/db mice in the freely-feeding state at doses of 30 and/or 100 mg/kg. Blood glucose levels were assessed in blood samples obtained by tail bleed at baseline (prior to drug administration) and at regular time intervals over 24 hours using a portable glucometer such as the OneTouch or HemoCue meters. The magnitude of blood glucose lowering elicited by the compounds of the invention was determined by comparison to those in db/db mice administered only the vehicle. The percentage glucose lowering was calculated by factoring in the blood glucose levels of vehicle-treated lean db/+(heterozygote) mice, with 100% representing the normalization of blood glucose levels from the hyperglycemic state (vehicle-treated db/db mice) to the normoglycemic state (vehicle-treated db/+ mice).

[1] = test system: glucagon-challenged Beagle dogs; experiment: Glucose lowering in glucagon-challenged Beagle dogs; format: in vivo, dog; details: Beagle dogs (n=3), oral gavage 38 mg/kg in PEG-400, glucagon 20 μg s.c. after 1.5 hours
Experimental: Purpose: To assess the effects of compounds of the invention on blood glucose levels in glucagon-challenged Beagle dogs.
Methods: Beagle dogs (n=3) were treated with vehicle (polyethylenelglycol-400) by oral gavage. After 1.5 hours, glucagon (20 μg) was administered subcutaneously. Blood glucose levels were measured prior to glucagon administration and at 10-minute intervals thereafter for up to an hour. Blood samples for these determinations were obtained from a superficial ear vein and were measured using a OneTouch glucometer. After a 1-week washout, the animals were treated by oral gavage with the compound of Example 2.009 at a dose of 38 mg/kg (polyethylenelglycol-400 formulation). The glucagon challenge and blood sampling were then performed as before.

[2] = oral gavage in PEG-400, dose 30 mg/Kg
[3] = oral gavage in PEG-400, dose 100 mg/Kg

| SMILES | inhibition in vivo at 30 mg/kg (db/db mice) [%] | Glucose lowering (db/db mice; [2]) [mg/dL] | inhibition in vivo at 100 mg/kg (db/db mice) [%] | Glucose lowering (db/db mice; [3]) [mg/dL] | attenuation of the glucagon-induced glucose excursion [1] |
| --- | --- | --- | --- | --- | --- |
| CCC(c1ccc(C(=O)NCCS(=O)(=O)O)cc1)C(C(=O)Nc1ccc(-c2ccc(Cl)cc2Cl)cc1)c1ccc(/C=C/C(C)(C)C)cc1 (centres unmarked) [Example 1.315] | 57 | 172 | – | – | – |
| CC(C)(C)/C=C/c1ccc(C(Cc2ccc(C(=O)NCCS(=O)(=O)[O-])cc2)C(=O)Nc2ccc(-c3ccc(C(F)(F)F)cc3Cl)cc2)cc1.[Na+] (centres unmarked) [Example 1.135] | – | – | 41 | 131 | – |
| O=C(NCCS(=O)(=O)O)c1ccc(CC(C(=O)Nc2ccc(-c3cc4ccccc4o3)cc2Cl)c2ccc(OC(F)(F)F)cc2)cc1 (centres unmarked) [Example 1.155] | 49 | 108 | – | – | – |
| CC(C)(C)COc1ccc(C(Cc2ccc(C(=O)NCCS(=O)(=O)O)cc2)C(=O)Nc2ccc(-c3ccc(Cl)cc3Cl)cc2)cc1.[Na+] (centres unmarked) [Example 1.136] | 16 | 47 | – | – | – |
| Cc1cc(Cl)ccc1-c1ccc(NC(=O)C(Cc2ccc(C(=O)NCCS(=O)(=O)O)cc2)c2ccc(/C=C/C(C)(C)C)cc2)cc1Cl (centres unmarked) [Example 1.359] | – | – | 48 | 150 | – |
| CC(c1ccc(C(=O)NCCS(=O)(=O)[O-])cc1)C(C(=O)Nc1ccc(-c2ccc(Cl)cc2Cl)cc1)c1ccc(/C=C/C(C)(C)C)cc1.[Na+] (centres unmarked) [Example 1.137] | 53 | 159 | – | – | – |
| CC(C)(C)C1CCC(C(Cc2ccc(C(=O)NCCS(=O)(=O)[O-])cc2)C(=O)Nc2ccc(-c3ccc(Cl)cc3Cl)cc2)CC1.[Na+] (centres unmarked) [Example 1.138] | 6 | 19 | – | – | – |
| Cc1cc(NC(=O)C(Cc2ccc(C(=O)NCCS(=O)(=O)O)cc2)c2ccc(OCC(C)(C)C)cc2)ccc1-c1ccc(C(F)(F)F)cc1C (centres unmarked) [Example 1.311] | 36 | 109 | – | – | – |
| Cc1cc(C(F)(F)F)ccc1-c1ccc(NC(=O)C(Cc2ccc(C(=O)NCCS(=O)(=O)O)cc2)c2ccc(/C=C/C(C)(C)C)cc2)cc1Cl (centres unmarked) [Example 1.173] | 50 | 172 | – | – | – |
| Cc1cc(NC(=O)C(Cc2ccc(C(=O)NCCS(=O)(=O)O)cc2)c2ccc(/C=C/C(C)(C)C)cc2)ccc1-c1ccc(C(F)(F)F)cc1Cl (centres unmarked) [Example 1.179] | 34 | 102 | – | – | – |
| CC(C)(C)COc1ccc(C(Cc2ccc(C(=O)NCCS(=O)(=O)O)cc2)C(=O)Nc2ccc(-c3ccc(C(F)(F)F)cc3Cl)cc2)cc1 (centres unmarked) [Example 1.314] | 40 | 95 | – | – | – |
| CC(C)(C)c1ccc(C(Cc2ccc(C(=O)NCCS(=O)(=O)[O-])cc2)c2cc(-c3cccc(-c4ccc(Cl)cc4)c3)on2)cc1.[Na+] (centres unmarked) [Example 2.009] | – | – | – | – | approximately 40% |
| CC(C)(C)C1CC=C(c2ccc(C(Cc3ccc(C(=O)NCCS(=O)(=O)O)cc3)C(=O)Nc3ccc(-c4ccc(C(F)(F)F)cc4Cl)cc3)cc2)CC1 (centres unmarked) [Example 1.270] | 24 | 63 | – | – | – |
| Cc1cc(Cl)ccc1-c1ccc(NC(=O)C(Cc2ccc(C(=O)NCCS(=O)(=O)O)cc2)c2ccc(C3=CCC(C(C)(C)C)CC3)cc2)cc1 (centres unmarked) [Example 1.269] | 42 | 124 | – | – | – |
| CC(C)(C)/C=C/c1ccc(C(Cc2ccc(C(=O)NCCS(=O)(=O)[O-])cc2)C(=O)Nc2ccc(-c3ccc(Cl)cc3Cl)cc2)cc1.[Na+] (centres unmarked) [Example 1.133] | 57 | 157 | – | – | – |
| CC(C)(C)/C=C/c1ccc(C(Cc2ccc(C(=O)NCCS(=O)(=O)[O-])cc2)C(=O)Nc2ccc(-c3cc4ccccc4o3)cc2)cc1.[Na+] (centres unmarked) [Example 1.052] | 61 | 147 | – | – | – |
| CC(C)(C)/C=C/c1ccc(C(Cc2ccc(C(=O)NCCS(=O)(=O)O)cc2)C(=O)Nc2ccc(C3=Cc4ccccc4C3)cc2)cc1 (centres unmarked) [Example 1.321] | 68 | 161 | – | – | – |
| Cc1cc(C(F)(F)F)ccc1-c1ccc(NC(=O)C(Cc2ccc(C(=O)NCCS(=O)(=O)O)cc2)c2ccc(/C=C/C(C)(C)C)cc2)cc1 (centres unmarked) [Example 1.320] | 39 | 121 | – | – | – |
